# Read-outs that look alike come from different tables or passages of the source.
# Experiments:
# cyclin B/CDK1 enzyme = biological target: T1, cyclin B/CDK1 enzyme (Homo sapiens, UniProt P06493); test: CDK1 ELISA kinase assay (phospho-Rb ser 795 detection); assay type: biochemical
# T1 construct: purchased New England BioLabs; host or cells: Sf9 insect cells, recombinant baculovirus
# Procedure: (§1) • 1. High-binding ELISA microtiter plates (Costar) were coated with 40 μl of the kinase substrate (GST fusion of C-terminal fragment of the retinoblastoma susceptibility gene product) diluted to 10 μg/ml in tris-buffered saline (TBS), overnight at 4° C. • 2. Non-specific binding sites were blocked for 1 hour at 4° C. with Superblock in TBS (Pierce), and the plates rinsed with water. • 3. For the screen, 1.5 μl of test compound (200 μg/ml stock in 20% DMSO/20 mM HEPES, pH 7.5) was added to each well. Final dose of the test compound in the assay was 10 ug/ml. […] The kinase reaction (30 μl) was dispensed into each well. Reactions contained 200 μM ATP, 0.5 mg/ml bovine serum albumin (BSA; Sigma), and 0.5 μl partially purified cyclin D1/cdk 4 enzyme*. The enzyme complex is expressed in insect cells (Sf9) infected with recombinant baculovirus and partially purified using ammonium sulfate fractionation. Reaction volumes were adjusted to 30 μl with kinase assay buffer (50 mM HEPES, pH 7.5, 10 mM MgCl2, 5% glycerol, 10 mM 2-mercaptoethanol). • *: For CDK2 assay, 1.0 μl cyclin E/CDK2 enzyme (diluted 1:1000 in kinase assay buffer) was used. The enzyme is isolated from insect cells (Sf9) infected with recombinant baculovirus and partially purified using ammonium sulfate fractionation. For CDK1 assay, 0.08 μl cyclin B/CDK1 enzyme [New England BioLabs; the enzyme is isolated from insect cells (Sf9) infected with recombinant baculovirus carrying human cdc 2 and human cyclin B] was used.
# (§2) […] • 5. Plates were incubated at 30° C. for 1 hour. • 6. The reaction mixture was removed by aspiration and replaced with 250 μl TBS containing 0.1% Tween-20 and 5% nonfat dry milk (blocking buffer). The plates were incubated at 4° C. for 1 hour. • 7. The blocking buffer was removed and replaced with 50 μl of the primary antibody [anti-phospho-Rb ser 795 (New England BioLabs) diluted 1:1000 in blocking buffer]. Incubation was at 4° C. for 16-20 hours. • 8. The wells were rinsed 3 times with 250 μl of TBS containing 0.1% Tween-20 followed by the addition of 50 μl of secondary antibody [anti-rabbit IgG conjugated to horseradish peroxidase (Amersham Life Science) diluted 1:1000 in blocking buffer]. • 9. After a 1 hour incubation at room temperature, the wells were rinsed 3 times with 250 μl of TBS/0.1% Tween 20. • 10. TMB (3,3′,5,5′-tetramethylbenzidine dihydrochloride) substrate solution (100 μl; Pierce) was added to each well and the color development reaction allowed to proceed 5-10 minutes at room temperature with shaking. The reaction was stopped by the addition of 2N sulfuric acid (100 μl) and the absorbance values read at 450 nm in a microplate reader (Molecular Devices). Analysis of Results: • 1. The percentage of the absorbance value in wells containing the test compound relative to control wells (no test agent) was determined. • 2. IC50 values of selected compounds were determined from inhibition curves, after subtracting background values (no substrate).
# cyclin D1/cdk 4 enzyme = biological target: T2, cyclin D1/cdk 4 enzyme (Homo sapiens, UniProt P11802); test: CDK4 ELISA kinase assay (phospho-Rb ser 795 detection); assay type: biochemical
# T2 construct: made in house; host or cells: Sf9 insect cells, recombinant baculovirus
# T2 sequence (P11802 whole entry, species assumed): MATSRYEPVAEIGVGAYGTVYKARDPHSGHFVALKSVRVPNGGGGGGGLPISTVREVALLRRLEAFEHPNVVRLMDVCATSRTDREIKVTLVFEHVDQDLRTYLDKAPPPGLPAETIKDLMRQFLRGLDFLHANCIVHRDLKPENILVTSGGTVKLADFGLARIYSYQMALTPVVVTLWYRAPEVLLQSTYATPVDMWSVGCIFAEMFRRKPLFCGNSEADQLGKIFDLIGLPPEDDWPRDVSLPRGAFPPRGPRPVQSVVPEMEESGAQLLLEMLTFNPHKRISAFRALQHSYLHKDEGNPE
# T2 sequence (P24385 whole entry partner, species assumed): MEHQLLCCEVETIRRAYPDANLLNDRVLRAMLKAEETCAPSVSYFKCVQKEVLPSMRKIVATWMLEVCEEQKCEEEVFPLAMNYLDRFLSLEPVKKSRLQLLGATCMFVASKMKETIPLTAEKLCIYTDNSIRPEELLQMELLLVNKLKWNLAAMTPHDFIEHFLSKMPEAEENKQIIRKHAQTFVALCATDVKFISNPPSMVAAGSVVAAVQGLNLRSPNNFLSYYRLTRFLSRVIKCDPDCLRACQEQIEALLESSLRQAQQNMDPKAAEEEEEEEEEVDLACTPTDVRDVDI
# Summary of the method: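 Partially purified Sf9-expressed cyclin D1/CDK4, cyclin E/CDK2 or cyclin B/CDK1 phosphorylated plate-bound GST-Rb C-terminal fragment with 200 μM ATP at 30° C for 1 h.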
# cyclin E/CDK2 enzyme = biological target: T3, cyclin E/CDK2 enzyme (Homo sapiens, UniProt P24941); test: CDK2 ELISA kinase assay (phospho-Rb ser 795 detection); assay type: biochemical
# T3 construct: made in house; host or cells: Sf9 insect cells, recombinant baculovirus
# Procedure: as §1, §2
# LoVo = test: Cytotoxicity assay (SRB), LoVo; assay type: cell-based; conditions: Homo sapiens, LoVo, 72 h, LoVo cells, SRB, read-out: In Vitro Cellular Activity IC50 LOVO
# Summary of the method: (§3)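 Plate cells, let them attach overnight, add compound dilutions in RPMI 1640/5% FBS, and incubate 3 days (BT474 6 days). Then fix with TCA, stain with SRB, dissolve the dye in Tris and read at 540 nm.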
# MCF-7 = test: Cytotoxicity assay (SRB), MCF-7; assay type: cell-based; conditions: Homo sapiens, MCF7, 72 h, MCF-7 cells, SRB, read-out: In Vitro Cellular Activity IC50 MCF-7
# Summary of the method: as §3
# BT474 = test: Cytotoxicity assay (SRB), BT474; assay type: cell-based
# Summary of the method: as §3
# HCT-116 = test: Cytotoxicity assay (SRB), HCT-116; assay type: cell-based; conditions: Homo sapiens, HCT-116, 72 h, HCT116 cells, SRB, read-out: In Vitro Cellular Activity IC50 HCT116
# Summary of the method: as §3
# [1] = In Vitro Enzyme Assay, cyclin B/CDK1, read-out: CDK1 IC50
# [2] = In Vitro Enzyme Assay, cyclin D1/cdk 4, read-out: CDK4 IC50
# [3] = In Vitro Enzyme Assay, cyclin E/CDK2, read-out: CDK2 IC50
# [4] = In Vitro Enzyme Assays, read-out: CDK1 IC50
# [5] = In Vitro Enzyme Assays, 200 μM ATP, read-out: CDK4 IC50
# [6] = In Vitro Enzyme Assays, read-out: CDK2 IC50
# [7] = Homo sapiens, BT-474, 144 h, BT474 cells, 6 days, SRB; read-out: In Vitro Cellular Activity IC50 BT474
# T1 sequence (P06493 whole entry): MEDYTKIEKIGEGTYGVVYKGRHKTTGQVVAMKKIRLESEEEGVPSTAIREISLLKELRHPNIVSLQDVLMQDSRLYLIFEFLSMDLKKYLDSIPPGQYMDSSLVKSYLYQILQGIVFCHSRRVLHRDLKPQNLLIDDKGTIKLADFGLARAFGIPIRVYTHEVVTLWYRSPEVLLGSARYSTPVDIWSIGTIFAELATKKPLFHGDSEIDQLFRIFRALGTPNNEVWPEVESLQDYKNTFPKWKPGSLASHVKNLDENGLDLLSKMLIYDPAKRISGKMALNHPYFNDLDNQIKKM
# T1 sequence (P14635 whole entry partner): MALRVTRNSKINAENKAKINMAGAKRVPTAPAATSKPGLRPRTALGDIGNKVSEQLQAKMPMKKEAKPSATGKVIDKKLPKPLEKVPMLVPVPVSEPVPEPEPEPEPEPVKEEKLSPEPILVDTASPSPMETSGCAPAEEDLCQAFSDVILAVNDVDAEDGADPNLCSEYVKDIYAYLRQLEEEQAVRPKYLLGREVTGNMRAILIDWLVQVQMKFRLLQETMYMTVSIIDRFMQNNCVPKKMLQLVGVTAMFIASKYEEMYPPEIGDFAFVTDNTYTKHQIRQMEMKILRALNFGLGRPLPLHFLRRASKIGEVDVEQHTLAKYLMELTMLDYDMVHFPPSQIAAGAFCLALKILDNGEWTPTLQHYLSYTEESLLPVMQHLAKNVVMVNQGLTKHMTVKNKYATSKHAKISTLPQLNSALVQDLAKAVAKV
Compound,IC50 (cyclin B/CDK1 enzyme; [1]) [µM],IC50 (cyclin D1/cdk 4 enzyme; [2]) [nM],IC50 (cyclin E/CDK2 enzyme; [3]) [µM],IC50 (cyclin D1/cdk 4 enzyme; [5]) [nM],IC50 (cyclin E/CDK2 enzyme; [6]) [µM],other results
"CC(=O)c1ccc(-c2ccc3c(c2)C(=CNCc2ccc(O)c(O)c2)C(=O)NC3=O)cc1 [Example 775, 6-(4-Acetyl-phenyl)-4-[(3,4-dihydroxy-benzylamino)-methylene]-4H-isoquinoline-1,3-dione]",> 50,200,14.1,–,–,–
"(4Z)-6-Bromo-4-{[(3-hydroxy-4-methoxybenzyl)amino)methylene}isoquinoline-1,3(2H,4H-dione [Example 50]",–,–,–,30,> 50,IC50 (cyclin B/CDK1 enzyme; [4]): > 50 µM
"O=C(O)C=Cc1cccc(-c2ccc3c(c2)C(=CNCc2ccc(O)c(O)c2)C(=O)NC3=O)c1 [Example 789, 3-(3-{4-[(3,4-Dihydroxy-benzylamino)-methylene]-1,3-dioxo-1,2,3,4-tetrahydro-isoquinolin-6-yl}-phenyl)-acrylic acid]",> 50,400,27.7,–,–,–
"Nc1cc(CN/C=C2\C(=O)NC(=O)c3ccc(Br)cc32)cc(O)c1O [Example 204, (4Z)-4-{[(3-Amino-4,5-dihydroxybenzyl)amino]methylene}-6-bromoisoquinoline-1,3(2H,4H)-dione]",–,–,–,220,7,IC50 (cyclin B/CDK1 enzyme; [4]): > 50 µM
"N#CCc1ccc(C=Cc2ccc3c(c2)C(=CNCc2ccc(O)c(O)c2)C(=O)NC3=O)cc1 [Example 805, [4-(2-{4-[(3,4-Dihydroxy-benzylamino)-methylene]-1,3-dioxo-1,2,3,4-tetrahydro-isoquinolin-6-yl}-vinyl)-phenyl]-acetonitrile]",–,290,23.1,–,–,IC50 (LoVo; 3 days): 36.3 µM; IC50 (MCF-7; 3 days): 33.9 µM; IC50 (BT474; [7]): 21.9 µM; IC50 (HCT-116; 3 days): 13.8 µM
"O=C1NC(=O)c2ccc(Br)cc2/C1=C/NCc1ccc(O)c(O)c1 [Example 40, (4Z)-6-Bromo-4-{[(3,4-dihydroxybenzyl)amino]methylene}isoquinoline-1,3(2H,4H)-dione]",–,–,–,40,> 50,IC50 (cyclin B/CDK1 enzyme; [4]): > 50 µM
"COc1ccc(CN/C=C2\C(=O)NC(=O)c3ccc(Cl)cc32)cc1O [Example 67, (4Z)-6-Chloro-4-{[(3-hydroxy-4-methoxybenzyl)amino]methylene}isoquinoline-1,3(2H,4H)-dione]",–,–,–,230,> 50,IC50 (cyclin B/CDK1 enzyme; [4]): > 50 µM
"NS(=O)(=O)c1ccc(CNC=C2C(=O)NC(=O)c3ccc(C=Cn4ccnc4)cc32)cc1 [Example 658, 4-({[6-(2-Imidazol-1-yl-vinyl)-1,3-dioxo-2,3-dihydro-1H-isoquinolin-4-ylidenemethyl]-amino}-methyl)-benzenesulfonamide]",> 50,190,23.1,–,–,–
"COc1ccc(CNC=C2C(=O)NC(=O)c3ccc(C=CCN4CC(=O)NC4=O)cc32)cc1O [Example 826, 6-[3-(2,4-Dioxo-imidazolidin-1-yl)-propenyl]-4-[(3-hydroxy-4-methoxy-benzylamino)-methylene]-4H-isoquinoline-1,3-dione]",–,110,12.9,–,–,IC50 (LoVo; 3 days): > 50 µM; IC50 (MCF-7; 3 days): > 50 µM; IC50 (BT474; [7]): > 50 µM; IC50 (HCT-116; 3 days): 36.9 µM
"N#Cc1ccc(-c2ccc3c(c2)C(=CNCc2ccc(S(N)(=O)=O)cc2)C(=O)NC3=O)cc1 [Example 755, 4-({[6-(4-Cyano-phenyl)-1,3-dioxo-2,3-dihydro-1H-isoquinolin-4-ylidenemethyl]-amino}-methyl)-benzenesulfonamide]",12.3,570,7.7,–,–,–
"CN(C)CCNC(=O)C1CCN(c2ccc(N/C=C3\C(=O)NC(=O)c4ccc(I)cc43)cc2)CC1 [Example 433, N-[2-(Dimethylamino)ethyl]-1-(4-{[(Z)-(6-iodo-1,3-dioxo-2,3-dihydroisoquinolin-4(1H)-ylidene)methyl]amino}phenyl)piperidine-4-carboxamide]",–,–,–,1200,> 50,IC50 (LoVo; 3 days): 2.8 µM; IC50 (MCF-7; 3 days): 3.1 µM; IC50 (BT474; [7]): 4.5 µM; IC50 (HCT-116; 3 days): 2 µM
"N=C(N)c1ccc(NC=C2C(=O)NC(=O)c3ccccc32)cc1 [Example 547, 4-[(1,3-Dioxo-2,3-dihydro-1H-isoquinolin-4-ylidenemethyl)-amino]-benzamidine]",> 50,13200,6.6,–,–,–
"O=C1NC(=O)c2ccc(Br)cc2C1=CNc1ccc(-c2cccnc2)cc1 [Example 349, 6-Bromo-4-[(4-pyridin-3-yl-phenylamino)-methylene]-4H-isoquinoline-1,3-dione]",–,–,–,37100,36.3,IC50 (cyclin B/CDK1 enzyme; [4]): > 50 µM
"O=C1NC(=O)c2ccc(-c3ccc(C(=O)O)cc3)cc2C1=CNCc1ccc(O)c(O)c1 [Example 770, 4-{4-[(3,4-Dihydroxy-benzylamino)-methylene]-1,3-dioxo-1,2,3,4-tetrahydro-isoquinolin-6-yl}-benzoic acid]",18.5,90,13.8,–,–,–
"O=C1NC(=O)c2ccccc2C1=CNc1ccc(O)c(C(=O)O)c1 [Example 563, 5-[(1,3-Dioxo-2,3-dihydro-1H-isoquinolin-4-ylidenemethyl)-amino]-2-hydroxy-benzoic acid]",18.5,8200,15.1,–,–,–
"CN1CCN(c2ccc(N/C=C3\C(=O)NC(=O)c4ccc(-c5ccc(C=O)o5)cc43)cc2)CC1 [Example 124, 5-[(4Z)-4-({[4-(4-Methylpiperazin-1-yl)phenyl]amino}methylene)-1,3-dioxo-1,2,3,4-tetrahydroisoquinolin-6-yl]-2-furaldehyde]",–,–,–,360,> 50,"IC50 (LoVo; three days): 5 µM; IC50 (MCF-7; three days): 7.9 µM; IC50 (BT474; Homo sapiens, BT-474, 144 h, BT474 cells, SRB, 6 days; read-out: In Vitro Cellular Activity IC50 BT474): 9.1 µM; IC50 (HCT-116; three days): 2.6 µM"
"O=C1NC(=O)c2ccc(C=Cc3ccncc3)cc2C1=CNCc1ccc(O)c(O)c1 [Example 663, 4-[(3,4-Dihydroxy-benzylamino)-methylene]-6-(2-pyridin-4-yl-vinyl)-4H-isoquinoline-1,3-dione]",> 50,10,6.3,–,–,–
